Test results reported in patent US11278522B2, “Use of methadone metabolites for treatment of anxiety and depression” (Georgetown University, priority 2015, dated 2022).

What was measured:
opiate receptors = assay: [3H]-naloxone binding competition in rat forebrain membranes
Forced swim test (rats) = format: in vivo, rat; conditions: three doses, 5 min test, vehicle 81 s
Procedure: Forced Swim Test (FST; Rats) The FST in rats was conducted as previously described (Porsolt et al., 2001). On day 1, rats were placed in a cylindrical chamber (20 cm in diameter, 46 cm deep) filled to a height of 38 cm with room temperature water for 15 min. After the completion of this pre-exposure test, animals were removed from the apparatus, dried with towels and placed under a heat lamp for ˜30 min. […] Animals were treated with these same doses again 20 h and 23 h after the initial dose. Twenty-four h after the pre-exposure, animals were re-introduced to the apparatus and video-recorded for 5 min. Immobility was hand-scored for each video record by a treatment blind observer (P.A.F.) using ANYmaze (Stoelting) to record the data.

[1] = Eyelid ptosis assessment (rats); format: in vivo, rat
Procedure: Ptosis was assessed as previously described (Rubin et al., 1957). Each animal was photographed while gently restrained by hand. Photographs were analyzed by a treatment blind observer (P.A.F.) and assigned a score of 0 (no ptosis, eye completely open), 1 (mild, eye partially closed), 2 (moderate, eye half closed), 3 (severe, eye […] closed), or 4 (complete, eye completely closed).

human α3β4 nAChRs = molecular target: T1, human α3β4 nAChRs (Homo sapiens, UniProt P30926+P32297); assay: 86Rb+ efflux assay, inhibition of nicotine-stimulated efflux, α3β4 nAChRs; format: cell-based
T1 construct: expressed in transfected cells
Procedure: Stable cell lines and ^86Rb^+ efflux Assay. […] These cell lines were maintained in minimum essential medium (MEM) supplemented with 10% fetal bovine serum, 100 units/mL penicillin G, […] and selective antibiotics at 37° C. with 5% CO2 in a humidified incubator. Tissue culture medium and antibiotics were obtained from Invitrogen Corporation (Carlsbad, Calif.), unless otherwise stated. Fetal bovine serum was obtained from Gemini Bio-Products (Woodland, Calif.).
In brief, cells were plated into 24-well plates coated with poly-D-lysine. […] The cells were then incubated in growth medium (0.5 mL/well) containing ^86Rb^+ (2 μCi/mL) for 4 hour at 37° C. The loading mixture was then aspirated, and the cells were washed four times with 1 mL buffer (15 mM HEPES, 140 mM NaCl, 2 mM KCl, 1 mM MgSO4, 1.8 mM CaCl2), 11 mM Glucose, pH 7.4). One mL of buffer with or without compounds to be tested was then added to each well. After incubation for 2 min, the assay buffer was collected for measurements of ^86Rb^+ released from the cells. Cells were then lysed by adding 1 mL of 100 mM NaOH to each well, and the lysate was collected for determination of the amount of ^86Rb^+ that was in the cells at the end of the efflux assay. Radioactivity of assay samples and lysates was measured by liquid scintillation counting. Total loading (cpm) was calculated as the sum of the assay sample and the lysate of each well, and the amount of ^86Rb^+ efflux was expressed as a percentage of ^86Rb^+ loaded. Stimulated ^86Rb^+ efflux was defined as the difference between efflux in the presence and absence of nicotine. […] IC50 values were determined by nonlinear least-squares regression analyses (GraphPad. San Diego, Calif.).

rat α3β4 nAChR channels = rat α3β4 nAChR channels (Rattus norvegicus, UniProt P04757+P12392); conditions: 2001, cited from earlier work
[2] = Elevated plus maze (rats); format: in vivo, rat
Procedure: Elevated Plus Maze (Rats) Plus maze testing was performed and scored as previously described (Forcelli and Heinrichs, 2008; Forcelli et al., 2012), in a standard grey rat elevated plus maze (50 cm arms, elevated 40 cm off the ground [Stoelting Co., Wood Dale, Ill.]). Testing was conducted under 20 lux red light, 30 min after drug administration. The number of arm entries and time spent in open and closed arms were recorded using ANYmaze (Stoelting Co, Wood Dale, Ill.).

Forced swim test (mice) = format: in vivo, mouse; conditions: 6 min test
Procedure: Forced Swim Test (FST; Mice) The FST in mice was conducted as previously described [11]. Briefly, 10 min following i.p. injection of saline, EDDP or EMDP, mice were placed in Plexiglas cylinders filled with water (25° C.) for 6 min while being videotaped. The forced swim score for the entire 6 min test was assessed using the Cleversystems videotracking system (CleverSys) and confirmed with visual scoring by a trained observer. A mouse was judged to be immobile when making only those movements necessary to keep its head above water.

Marble burying (mice) = format: in vivo, mouse; conditions: 15 min test, vehicle mean 11 of 20
Procedure: Marble Burying (Mice) After a 1 h period of acclimation to the testing room, the mice (n=6-10 per group) were injected i.p. with saline, EDDP, EMDP, or CDP at the doses indicated. Ten minutes later, the mice were placed individually in small cages (26×20×14 cm), in which twenty marbles had been equally distributed on top of mouse bedding (5-cm deep), and a wire lid was placed on top of the cage. Mice were left undisturbed for 15 min, after which time the number of buried marbles (i.e., those covered by bedding three-quarters or more) was counted.

[3] = Open field locomotor activity (rats); format: in vivo, rat; conditions: 5 mg/kg s.c., 30 min after injection
Procedure: Locomotor Activity (Rats) Locomotor activity was measured 30 minutes after sc injection of test compound. Animals were placed in a Plexiglass enclosure (16″×16″×16″, TruScan Arena, Coulbourn Instruments, Whitehall, Pa.) with 770 lux illumination over the center of the arena. Animals were allowed to explore for 20 min, during which total distance traveled was recorded using ANYmaze software (Stoelting Co., Wood Dale, Ill.), as previously described (Forcelli et al., 2012).

[4] = Home cage locomotor activity (mice); format: in vivo, mouse; conditions: mice, 0.5, 1, 5, 10 mg/kg i.p., 60 min
Procedure: Locomotor Activity (Mice) Locomotor activity in response to i.p. drug administration was analyzed in a “home cage” activity monitoring system (Med Associates, St. Albans, Vt.), as previously described (Walters and Blendy, 2001; Mackler et al., 2008; Isiegas et al., 2009). Briefly, a novel cage identical to the home cage (28.9 cm×17.8 cm 12 cm) was placed in a photo-beam frame (30 cm×24 cm×8 cm) with sensors arranged in an 8-beam array strip. For dose studies, mice were injected i.p. with saline or drug. Immediately following drug administration, the mice were placed individually in the cages. Beam break data was monitored and recorded for 60 min.

rat α3β4 nAChR channels, sequence (P04757 26-499): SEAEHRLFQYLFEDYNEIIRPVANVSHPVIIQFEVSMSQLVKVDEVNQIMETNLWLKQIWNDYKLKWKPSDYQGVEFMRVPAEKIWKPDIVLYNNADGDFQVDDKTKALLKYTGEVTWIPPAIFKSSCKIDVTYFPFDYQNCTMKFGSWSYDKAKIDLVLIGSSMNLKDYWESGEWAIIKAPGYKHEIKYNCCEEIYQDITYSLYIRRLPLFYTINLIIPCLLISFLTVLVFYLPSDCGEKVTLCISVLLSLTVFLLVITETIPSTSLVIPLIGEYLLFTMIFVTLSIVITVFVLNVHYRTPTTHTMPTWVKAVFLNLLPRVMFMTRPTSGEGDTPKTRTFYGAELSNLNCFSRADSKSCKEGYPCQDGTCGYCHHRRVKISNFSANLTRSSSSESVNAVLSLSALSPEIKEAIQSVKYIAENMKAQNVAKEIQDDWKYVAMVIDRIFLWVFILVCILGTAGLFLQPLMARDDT
rat α3β4 nAChR channels, sequence (P12392 21-495): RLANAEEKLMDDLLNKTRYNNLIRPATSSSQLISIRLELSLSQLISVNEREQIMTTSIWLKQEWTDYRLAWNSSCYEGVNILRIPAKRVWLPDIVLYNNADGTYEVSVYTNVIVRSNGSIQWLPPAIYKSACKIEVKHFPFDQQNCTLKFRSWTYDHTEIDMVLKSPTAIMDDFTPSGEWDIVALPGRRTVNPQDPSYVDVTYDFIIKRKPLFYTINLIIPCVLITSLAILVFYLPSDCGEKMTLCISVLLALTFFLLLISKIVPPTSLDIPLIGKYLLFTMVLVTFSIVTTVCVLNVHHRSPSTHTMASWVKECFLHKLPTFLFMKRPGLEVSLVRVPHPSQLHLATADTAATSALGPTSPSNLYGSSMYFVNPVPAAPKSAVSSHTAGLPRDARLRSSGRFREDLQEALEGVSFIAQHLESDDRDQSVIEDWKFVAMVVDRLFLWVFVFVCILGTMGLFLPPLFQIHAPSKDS
T1 sequence (P32297 32-505): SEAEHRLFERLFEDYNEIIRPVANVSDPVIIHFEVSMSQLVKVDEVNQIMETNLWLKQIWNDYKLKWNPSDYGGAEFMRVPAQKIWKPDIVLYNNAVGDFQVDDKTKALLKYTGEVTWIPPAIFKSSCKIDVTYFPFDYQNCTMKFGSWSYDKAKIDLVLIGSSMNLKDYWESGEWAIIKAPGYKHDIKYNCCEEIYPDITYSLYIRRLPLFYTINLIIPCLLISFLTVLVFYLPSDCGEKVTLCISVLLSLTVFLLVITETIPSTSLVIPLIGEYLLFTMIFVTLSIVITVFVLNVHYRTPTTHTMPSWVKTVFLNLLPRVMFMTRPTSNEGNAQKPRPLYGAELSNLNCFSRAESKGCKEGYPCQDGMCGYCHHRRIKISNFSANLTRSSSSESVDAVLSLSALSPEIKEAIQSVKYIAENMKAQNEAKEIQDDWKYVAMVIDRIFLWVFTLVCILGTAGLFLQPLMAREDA
T1 sequence (P30926 22-498): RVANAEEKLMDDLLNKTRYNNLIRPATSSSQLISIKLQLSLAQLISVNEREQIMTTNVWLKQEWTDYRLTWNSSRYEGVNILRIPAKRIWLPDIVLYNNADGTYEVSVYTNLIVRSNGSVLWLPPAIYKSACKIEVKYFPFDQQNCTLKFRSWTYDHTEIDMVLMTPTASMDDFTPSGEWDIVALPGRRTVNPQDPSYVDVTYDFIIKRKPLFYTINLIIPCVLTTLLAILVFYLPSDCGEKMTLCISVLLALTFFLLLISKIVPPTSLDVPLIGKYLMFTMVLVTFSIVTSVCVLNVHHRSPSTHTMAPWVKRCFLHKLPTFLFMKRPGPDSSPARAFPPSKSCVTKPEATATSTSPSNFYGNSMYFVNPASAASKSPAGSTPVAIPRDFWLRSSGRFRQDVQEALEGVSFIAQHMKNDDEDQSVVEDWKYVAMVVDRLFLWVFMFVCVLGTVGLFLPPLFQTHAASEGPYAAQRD

CCC1=NC(C)CC1(c1ccccc1)c1ccccc1 (racemic) [EMDP, 2-ethyl-5-methyl-3,3-diphenyl-1-pyrroline]
fraction of [3H]-naloxone binding sites competed for (opiate receptors; at a concentration of 100 μM): 60%
apparent affinity, fold lower than that of methadone (opiate receptors; rat forebrain [3H]-naloxone binding): ~1900 fold
Ki (opiate receptors; rat forebrain membranes, 2 nM [3H]-naloxone, single-site model): 21 µM
immobile time in forced swim test vs vehicle (Forced swim test (rats); 10 mg/kg s.c.): reduced immobile time
immobile time in forced swim test vs vehicle (Forced swim test (rats); 20 mg/kg s.c.): reduced immobile time
eyelid ptosis quantified over 3 h ([1]; 20 mg/kg): ptosis was not apparent at any time
ptosis observed during forced swim tests ([1]; 10 and 20 mg/kg): did not produce ptosis
potency relative to mecamylamine in blocking human α3β4 nAChRs (human α3β4 nAChRs): half as potent as mecamylamine
potency relative to mecamylamine in blocking rat α3β4 nAChRs (rat α3β4 nAChR channels; Xiao et al): one-sixth as potent
block of rat α3β4 nAChR channels (rat α3β4 nAChR channels; Xiao et al.): potently block
mean duration in the open arms of the elevated plus maze ([2]; s.c., dose not given, 30 min after drug, vehicle 104 s): 143 s
percentage of entries made into the open arms of the plus maze ([2]; vs vehicle): the groups did not differ
latency to first entry in the open arms ([2]; vs vehicle (data not shown)): did not differ as a function of treatment group
duration of immobility in forced swim test vs vehicle (Forced swim test (mice); 5 mg/kg i.p.): did not affect immobility time
duration of immobility in forced swim test vs vehicle (Forced swim test (mice); 10 mg/kg i.p.): significantly reduced
number of marbles buried vs vehicle (Marble burying (mice); 5 mg/kg i.p.): buried significantly fewer marbles
number of marbles buried vs vehicle (Marble burying (mice); 10 mg/kg i.p.): buried significantly fewer marbles
open field locomotor activity [3]: neither EDDP nor EMDP significantly altered
overall home cage locomotor activity [4]: did not significantly affect
